Legend:
[1] = target: Ankyrin repeat and protein kinase domain-containing protein 1 (Homo sapiens) (UniProt Q8NFD2); conditions: Compound concentration 1000.0 nM
[2] = target: Aurora kinase C (Homo sapiens) (UniProt Q9UQB9); conditions: Compound concentration 1000.0 nM
[3] = target: BMP-2-inducible protein kinase (Homo sapiens) (UniProt Q9NSY1); conditions: Compound concentration 1000.0 nM
[4] = target: Serine/threonine-protein kinase BRSK1 (Homo sapiens) (UniProt Q8TDC3); conditions: Compound concentration 1000.0 nM
[5] = target: Serine/threonine-protein kinase 17B (Homo sapiens) (UniProt O94768); conditions: Compound concentration 1000.0 nM
[6] = target: Dual specificity tyrosine-phosphorylation-regulated kinase 2 (Homo sapiens) (UniProt Q92630); conditions: Compound concentration 1000.0 nM
[7] = tested on: Epidermal growth factor receptor (Homo sapiens), P00533 [G719S]; conditions: Compound concentration 1000.0 nM
[8] = target: Ephrin type-A receptor 1 (Homo sapiens) (UniProt P21709); conditions: Compound concentration 1000.0 nM
[9] = target: Ephrin type-A receptor 7 (Homo sapiens) (UniProt Q15375); conditions: Compound concentration 1000.0 nM
[10] = target: Ephrin type-B receptor 4 (Homo sapiens) (UniProt P54760); conditions: Compound concentration 1000.0 nM
[11] = target: Receptor tyrosine-protein kinase erbB-3 (Homo sapiens) (UniProt P21860); conditions: Compound concentration 1000.0 nM
[12] = target: Mitogen-activated protein kinase 1 (Homo sapiens) (UniProt P28482); conditions: Compound concentration 1000.0 nM
[13] = target: Fibroblast growth factor receptor 3 (Homo sapiens) (UniProt P22607); conditions: Compound concentration 1000.0 nM
[14] = tested on: Receptor-type tyrosine-protein kinase FLT3 (Homo sapiens), P36888 [N841I]; conditions: Compound concentration 1000.0 nM
[15] = target: Tyrosine-protein kinase Fyn (Homo sapiens) (UniProt P06241); conditions: Compound concentration 1000.0 nM
[16] = target: Rhodopsin kinase GRK7 (Homo sapiens) (UniProt Q8WTQ7); conditions: Compound concentration 1000.0 nM
[17] = target: Hormonally up-regulated neu tumor-associated kinase (Homo sapiens) (UniProt P57058); conditions: Compound concentration 1000.0 nM
[18] = target: Inhibitor of nuclear factor kappa-B kinase subunit epsilon (Homo sapiens) (UniProt Q14164); conditions: Compound concentration 1000.0 nM
[19] = target: Tyrosine-protein kinase ITK/TSK (Homo sapiens) (UniProt Q08881); conditions: Compound concentration 1000.0 nM
[20] = target: Tyrosine-protein kinase JAK3 (Homo sapiens) (UniProt P52333); conditions: Compound concentration 1000.0 nM
[21] = target: Mitogen-activated protein kinase 9 (Homo sapiens) (UniProt P45984); conditions: Compound concentration 1000.0 nM
[22] = tested on: Mast/stem cell growth factor receptor Kit (Homo sapiens), P10721 [V559D,T670I]; conditions: Compound concentration 1000.0 nM
[23] = target: Serine/threonine-protein kinase MARK2 (Homo sapiens) (UniProt Q7KZI7); conditions: Compound concentration 1000.0 nM
[24] = target: Dual specificity mitogen-activated protein kinase kinase 4 (Homo sapiens) (UniProt P45985); conditions: Compound concentration 1000.0 nM
[25] = target: Serine/threonine-protein kinase 38 (Homo sapiens) (UniProt Q15208); conditions: Compound concentration 1000.0 nM
[26] = target: Serine/threonine-protein kinase NLK (Homo sapiens) (UniProt Q9UBE8); conditions: Compound concentration 1000.0 nM
[27] = target: Mitogen-activated protein kinase 11 (Homo sapiens) (UniProt Q15759); conditions: Compound concentration 1000.0 nM
[28] = tested on: Phosphatidylinositol 4,5-bisphosphate 3-kinase catalytic subunit alpha isoform (Homo sapiens), P42336 [M1043I]; conditions: Compound concentration 1000.0 nM
[29] = target: Serine/threonine-protein kinase pim-1 (Homo sapiens) (UniProt P11309); conditions: Compound concentration 1000.0 nM
[30] = target: Protein kinase C delta type (Homo sapiens) (UniProt Q05655); conditions: Compound concentration 1000.0 nM
[31] = target: Protein kinase C theta type (Homo sapiens) (UniProt Q04759); conditions: Compound concentration 1000.0 nM
[32] = target: Serine/threonine-protein kinase SIK3 (Homo sapiens) (UniProt Q9Y2K2); conditions: Compound concentration 1000.0 nM
[33] = target: Serine/threonine-protein kinase RIO3 (Homo sapiens) (UniProt O14730); conditions: Compound concentration 1000.0 nM
[34] = target: Ribosomal protein S6 kinase alpha-2 (Homo sapiens) (UniProt Q15349); conditions: Compound concentration 1000.0 nM
[35] = target: Serine/threonine-protein kinase Sgk1 (Homo sapiens) (UniProt O00141); conditions: Compound concentration 1000.0 nM
[36] = target: Serine/threonine-protein kinase Sgk2 (Homo sapiens) (UniProt Q9HBY8); conditions: Compound concentration 1000.0 nM
[37] = target: SNF-related serine/threonine-protein kinase (Homo sapiens) (UniProt Q9NRH2); conditions: Compound concentration 1000.0 nM
[38] = target: Serine/threonine-protein kinase 35 (Homo sapiens) (UniProt Q8TDR2); conditions: Compound concentration 1000.0 nM
[39] = target: TRAF2 and NCK-interacting protein kinase (Homo sapiens) (UniProt Q9UKE5); conditions: Compound concentration 1000.0 nM
[40] = target: Serine/threonine-protein kinase ULK2 (Homo sapiens) (UniProt Q8IYT8); conditions: Compound concentration 1000.0 nM
[41] = target: Serine/threonine-protein kinase VRK2 (Homo sapiens) (UniProt Q86Y07); conditions: Compound concentration 1000.0 nM
[42] = target: Wee1-like protein kinase 2 (Homo sapiens) (UniProt P0C1S8); conditions: Compound concentration 1000.0 nM
[43] = target: Alpha-2A adrenergic receptor (Homo sapiens) (UniProt P08913); conditions: Compound concentration 10.0 uM
[44] = target: Muscarinic acetylcholine receptor M5 (Homo sapiens) (UniProt P08912); conditions: Compound concentration 10.0 uM
[45] = target: Beta-3 adrenergic receptor (Homo sapiens) (UniProt P13945); conditions: Compound concentration 10.0 uM

Serine/threonine-protein kinase Sgk1 (Homo sapiens), sequence (O00141 whole entry): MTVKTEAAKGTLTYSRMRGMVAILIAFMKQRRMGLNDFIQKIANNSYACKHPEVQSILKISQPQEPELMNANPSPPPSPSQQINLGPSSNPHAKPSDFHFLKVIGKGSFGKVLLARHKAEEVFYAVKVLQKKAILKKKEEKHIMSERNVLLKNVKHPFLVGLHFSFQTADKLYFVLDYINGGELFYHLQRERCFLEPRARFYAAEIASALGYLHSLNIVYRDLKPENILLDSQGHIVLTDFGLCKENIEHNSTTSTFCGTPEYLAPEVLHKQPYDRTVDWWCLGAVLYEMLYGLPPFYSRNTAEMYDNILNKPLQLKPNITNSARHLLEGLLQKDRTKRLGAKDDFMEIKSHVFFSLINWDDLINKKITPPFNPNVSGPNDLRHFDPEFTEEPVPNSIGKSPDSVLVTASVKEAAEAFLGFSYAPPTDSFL
Tyrosine-protein kinase ITK/TSK (Homo sapiens), sequence (Q08881 whole entry): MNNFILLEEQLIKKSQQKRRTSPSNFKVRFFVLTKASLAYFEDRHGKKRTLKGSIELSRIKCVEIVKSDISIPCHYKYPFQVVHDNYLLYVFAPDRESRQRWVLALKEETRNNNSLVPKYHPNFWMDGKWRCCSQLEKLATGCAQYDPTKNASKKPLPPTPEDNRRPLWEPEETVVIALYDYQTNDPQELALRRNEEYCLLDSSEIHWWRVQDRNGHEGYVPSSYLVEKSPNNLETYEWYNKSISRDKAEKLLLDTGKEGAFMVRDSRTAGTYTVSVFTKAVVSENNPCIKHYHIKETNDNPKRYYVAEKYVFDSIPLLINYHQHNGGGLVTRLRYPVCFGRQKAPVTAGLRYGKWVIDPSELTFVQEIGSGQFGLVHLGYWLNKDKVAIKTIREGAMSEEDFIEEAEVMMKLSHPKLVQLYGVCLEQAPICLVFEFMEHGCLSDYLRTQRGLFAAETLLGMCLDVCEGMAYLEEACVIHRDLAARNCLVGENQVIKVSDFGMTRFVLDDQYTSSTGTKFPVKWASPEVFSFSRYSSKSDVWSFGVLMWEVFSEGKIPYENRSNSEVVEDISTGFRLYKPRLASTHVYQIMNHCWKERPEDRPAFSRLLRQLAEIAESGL
Alpha-2A adrenergic receptor (Homo sapiens), sequence (P08913 whole entry): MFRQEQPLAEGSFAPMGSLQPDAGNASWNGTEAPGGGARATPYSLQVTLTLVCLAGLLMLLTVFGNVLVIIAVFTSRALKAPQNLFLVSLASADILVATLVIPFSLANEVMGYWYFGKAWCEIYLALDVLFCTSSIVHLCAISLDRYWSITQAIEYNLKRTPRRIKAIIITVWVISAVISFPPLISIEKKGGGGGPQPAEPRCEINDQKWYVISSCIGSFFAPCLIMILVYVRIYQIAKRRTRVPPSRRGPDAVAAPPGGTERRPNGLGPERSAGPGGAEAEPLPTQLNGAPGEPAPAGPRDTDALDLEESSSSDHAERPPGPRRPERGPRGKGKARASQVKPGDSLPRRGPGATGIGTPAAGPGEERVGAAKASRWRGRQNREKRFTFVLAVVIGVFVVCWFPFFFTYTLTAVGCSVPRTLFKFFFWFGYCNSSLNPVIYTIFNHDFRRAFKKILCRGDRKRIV
Serine/threonine-protein kinase MARK2 (Homo sapiens), sequence (Q7KZI7 whole entry): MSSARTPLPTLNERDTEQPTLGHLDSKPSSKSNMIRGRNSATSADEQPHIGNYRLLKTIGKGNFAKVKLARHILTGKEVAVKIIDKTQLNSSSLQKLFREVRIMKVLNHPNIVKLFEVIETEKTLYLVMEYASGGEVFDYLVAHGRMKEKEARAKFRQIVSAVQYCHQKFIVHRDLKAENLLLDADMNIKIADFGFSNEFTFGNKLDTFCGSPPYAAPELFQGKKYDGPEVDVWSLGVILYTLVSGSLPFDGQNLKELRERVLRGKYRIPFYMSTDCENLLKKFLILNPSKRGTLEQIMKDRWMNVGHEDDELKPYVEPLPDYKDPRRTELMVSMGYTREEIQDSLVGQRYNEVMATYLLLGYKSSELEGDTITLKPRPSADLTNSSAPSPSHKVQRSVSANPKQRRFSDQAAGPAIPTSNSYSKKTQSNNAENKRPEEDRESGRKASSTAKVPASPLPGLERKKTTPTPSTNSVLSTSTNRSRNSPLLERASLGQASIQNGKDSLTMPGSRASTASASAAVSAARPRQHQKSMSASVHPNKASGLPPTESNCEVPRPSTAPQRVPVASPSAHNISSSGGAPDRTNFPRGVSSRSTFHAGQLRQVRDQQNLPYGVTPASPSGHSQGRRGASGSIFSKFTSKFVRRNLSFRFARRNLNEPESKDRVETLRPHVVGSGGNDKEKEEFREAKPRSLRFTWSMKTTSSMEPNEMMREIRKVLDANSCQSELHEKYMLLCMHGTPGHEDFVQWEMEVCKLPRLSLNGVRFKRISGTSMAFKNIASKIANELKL
Serine/threonine-protein kinase NLK (Homo sapiens), sequence (Q9UBE8 whole entry): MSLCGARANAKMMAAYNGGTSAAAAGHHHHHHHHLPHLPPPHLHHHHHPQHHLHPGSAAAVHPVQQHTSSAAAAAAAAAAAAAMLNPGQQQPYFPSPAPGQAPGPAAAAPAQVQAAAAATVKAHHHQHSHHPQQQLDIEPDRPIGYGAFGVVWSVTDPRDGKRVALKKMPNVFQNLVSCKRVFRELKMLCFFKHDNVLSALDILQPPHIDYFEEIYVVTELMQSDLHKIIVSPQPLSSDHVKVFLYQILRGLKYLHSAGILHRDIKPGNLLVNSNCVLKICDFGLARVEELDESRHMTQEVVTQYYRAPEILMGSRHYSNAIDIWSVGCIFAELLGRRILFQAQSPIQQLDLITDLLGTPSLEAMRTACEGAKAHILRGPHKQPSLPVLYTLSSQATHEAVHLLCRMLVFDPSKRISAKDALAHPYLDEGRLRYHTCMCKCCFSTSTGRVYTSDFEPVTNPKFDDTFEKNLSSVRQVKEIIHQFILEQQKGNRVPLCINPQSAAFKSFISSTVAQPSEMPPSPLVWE
Ribosomal protein S6 kinase alpha-2 (Homo sapiens), sequence (Q15349 whole entry): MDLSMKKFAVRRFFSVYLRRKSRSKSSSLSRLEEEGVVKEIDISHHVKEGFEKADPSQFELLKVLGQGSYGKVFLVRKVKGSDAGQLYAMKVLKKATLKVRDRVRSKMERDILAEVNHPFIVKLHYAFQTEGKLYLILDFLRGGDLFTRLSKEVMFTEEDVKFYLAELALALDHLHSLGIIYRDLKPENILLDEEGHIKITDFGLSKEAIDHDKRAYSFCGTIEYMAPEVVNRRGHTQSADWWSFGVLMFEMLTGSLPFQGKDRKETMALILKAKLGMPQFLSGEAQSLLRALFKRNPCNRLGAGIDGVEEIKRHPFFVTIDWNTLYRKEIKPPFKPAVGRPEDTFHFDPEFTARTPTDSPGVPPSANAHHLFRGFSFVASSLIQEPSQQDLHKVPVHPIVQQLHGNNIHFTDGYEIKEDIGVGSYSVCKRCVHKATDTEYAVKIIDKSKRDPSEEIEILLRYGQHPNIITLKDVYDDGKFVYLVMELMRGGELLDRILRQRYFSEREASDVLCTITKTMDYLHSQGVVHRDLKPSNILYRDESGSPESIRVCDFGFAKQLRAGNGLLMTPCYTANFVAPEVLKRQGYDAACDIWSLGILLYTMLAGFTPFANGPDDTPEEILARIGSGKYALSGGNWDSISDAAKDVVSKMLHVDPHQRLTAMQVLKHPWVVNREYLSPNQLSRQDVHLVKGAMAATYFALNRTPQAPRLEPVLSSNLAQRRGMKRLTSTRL
BMP-2-inducible protein kinase (Homo sapiens), sequence (Q9NSY1 whole entry, looked up): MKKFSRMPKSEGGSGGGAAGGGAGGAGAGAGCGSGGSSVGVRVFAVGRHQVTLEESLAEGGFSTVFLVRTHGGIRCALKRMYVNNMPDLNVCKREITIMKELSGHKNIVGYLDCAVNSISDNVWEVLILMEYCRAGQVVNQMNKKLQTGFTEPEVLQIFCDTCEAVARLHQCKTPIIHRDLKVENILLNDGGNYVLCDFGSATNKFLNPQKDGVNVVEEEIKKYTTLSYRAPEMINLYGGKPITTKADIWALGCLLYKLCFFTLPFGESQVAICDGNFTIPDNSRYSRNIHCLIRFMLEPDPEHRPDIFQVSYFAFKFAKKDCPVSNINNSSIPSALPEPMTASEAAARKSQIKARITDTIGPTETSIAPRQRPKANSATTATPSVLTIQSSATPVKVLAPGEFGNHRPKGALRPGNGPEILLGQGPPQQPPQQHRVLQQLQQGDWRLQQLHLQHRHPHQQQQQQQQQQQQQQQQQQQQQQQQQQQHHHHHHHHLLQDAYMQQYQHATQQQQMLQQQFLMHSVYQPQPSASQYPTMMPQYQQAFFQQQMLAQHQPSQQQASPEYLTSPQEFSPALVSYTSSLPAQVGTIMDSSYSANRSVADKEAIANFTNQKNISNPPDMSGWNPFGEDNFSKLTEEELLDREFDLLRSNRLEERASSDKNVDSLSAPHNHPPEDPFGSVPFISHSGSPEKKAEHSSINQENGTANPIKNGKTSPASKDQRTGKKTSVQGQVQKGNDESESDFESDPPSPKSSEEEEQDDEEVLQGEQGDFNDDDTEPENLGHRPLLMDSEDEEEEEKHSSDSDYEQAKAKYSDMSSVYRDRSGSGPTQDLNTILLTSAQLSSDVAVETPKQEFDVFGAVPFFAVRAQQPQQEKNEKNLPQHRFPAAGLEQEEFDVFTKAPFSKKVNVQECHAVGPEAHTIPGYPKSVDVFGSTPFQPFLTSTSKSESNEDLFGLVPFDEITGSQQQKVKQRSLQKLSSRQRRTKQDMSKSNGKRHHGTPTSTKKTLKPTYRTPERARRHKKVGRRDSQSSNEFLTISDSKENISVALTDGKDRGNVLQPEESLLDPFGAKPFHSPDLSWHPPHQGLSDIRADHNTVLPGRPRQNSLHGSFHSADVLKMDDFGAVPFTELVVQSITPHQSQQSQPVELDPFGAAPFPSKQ
Serine/threonine-protein kinase pim-1 (Homo sapiens), sequence (P11309 whole entry, looked up): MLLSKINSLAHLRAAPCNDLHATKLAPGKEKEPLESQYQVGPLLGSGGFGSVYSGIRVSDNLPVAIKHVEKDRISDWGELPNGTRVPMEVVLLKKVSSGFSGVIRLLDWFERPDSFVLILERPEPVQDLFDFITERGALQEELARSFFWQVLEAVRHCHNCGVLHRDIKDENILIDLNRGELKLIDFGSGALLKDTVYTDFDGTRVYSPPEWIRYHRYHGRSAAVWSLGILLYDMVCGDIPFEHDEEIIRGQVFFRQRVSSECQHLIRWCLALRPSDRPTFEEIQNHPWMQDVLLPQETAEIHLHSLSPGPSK

O=c1nc(-c2ccccn2)sc2ccccc12 [BTZO-1]
inactive: residual activity [1] 100% | residual activity [2] 97% | residual activity [3] 86% | residual activity [4] 91% | residual activity [5] 80% | residual activity [6] 100% | residual activity [7] 71% | residual activity [8] 100% | residual activity [9] 80% | residual activity [10] 100% | residual activity [11] 83% | residual activity [12] 91% | residual activity [13] 83% | residual activity [14] 74% | residual activity [15] 100% | residual activity [16] 89% | residual activity [17] 81% | residual activity [18] 100% | residual activity [19] 82% | residual activity [20] 100% | residual activity [21] 100% | residual activity [22] 83% | residual activity [23] 78% | residual activity [24] 100% | residual activity [25] 76% | residual activity [26] 100% | residual activity [27] 100% | residual activity [28] 100% | residual activity [29] 85% | residual activity [30] 100% | residual activity [31] 90% | residual activity [32] 85% | residual activity [33] 99% | residual activity [34] 100% | residual activity [35] 99% | residual activity [36] 85% | residual activity [37] 100% | residual activity [38] 79% | residual activity [39] 83% | residual activity [40] 100% | residual activity [41] 74% | residual activity [42] 100% | inhibition [43] 0.132% | inhibition [44] -7.5% | inhibition [45] 20.1%

O=C1NC(c2ccccn2)Sc2ccccc21 (stereo not given) [BTZO-4]
inactive: residual activity [1] 77% | residual activity [2] 90% | residual activity [3] 88% | residual activity [4] 76% | residual activity [5] 73% | residual activity [6] 99% | residual activity [7] 82% | residual activity [8] 100% | residual activity [9] 72% | residual activity [10] 100% | residual activity [11] 88% | residual activity [12] 89% | residual activity [13] 97% | residual activity [14] 60% | residual activity [15] 100% | residual activity [16] 86% | residual activity [17] 80% | residual activity [18] 94% | residual activity [19] 77% | residual activity [20] 100% | residual activity [21] 100% | residual activity [22] 87% | residual activity [23] 92% | residual activity [24] 93% | residual activity [25] 76% | residual activity [26] 100% | residual activity [27] 100% | residual activity [28] 74% | residual activity [29] 82% | residual activity [30] 71% | residual activity [31] 76% | residual activity [32] 70% | residual activity [33] 91% | residual activity [34] 97% | residual activity [35] 87% | residual activity [36] 72% | residual activity [37] 94% | residual activity [38] 99% | residual activity [39] 100% | residual activity [40] 76% | residual activity [41] 77% | residual activity [42] 85% | inhibition [43] 12.7% | inhibition [44] 0.557% | inhibition [45] 32.4%

— ChEMBL document CHEMBL4507329, “Data for DCP probe BTZO-1” (2021)
